Measurements: US20240327790A1, “METHODS AND COMPOSITIONS RELATING TO 3-D CULTURES” (PRESIDENT AND FELLOWS OF HARVARD COLLEGE, priority 2021, published 2024)

Tests used:
[1] = test system: human skin models, primary human neonatal keratinocytes; assay: Irritation test (MTT viability) on skin models with neonatal keratinocytes; type: cell-based; details: 3 mg/mL SDS in PBS, 50 μL on top of 14-day neonatal samples, 18 hours at 37° C., MTT 3 hours, absorbance 490 nm
Description: (§1) One potential use-case for these skin models is as an irritation model for pharmaceuticals, cosmetics, or occupational health studies. To evaluate the use of these stamped models in irritation tests, a common test method^21 was adapted. Sodium dodecyl sulfate (SDS) was applied to the top of these samples after 14 days of culture and incubated at 37° C. for 18 hours. After, an MTT assay was used to measure the cell viability. […] If the SDS penetrates through the epidermal barrier, the sample will not be viable and give a low signal in the MTT assay. […] Moreover, the standard for this test method is that the normalized viability reaches 50% between 1-3 mg/mL of SDS added to the samples^21. The samples here met this standard, as the 3 mg/mL neonatal samples have absorbance values greater than 50% of the negative control, and the diabetic sample with 2 mg/mL SDS has absorbance value greater than 50% of the negative control.
(§2) Irritation Test. After keratinocytes had grown for 14 days, 50 μL of SDS at a concentration between 1-3 mg/mL in PBS was applied to the top of each skin sample. 1×PBS was applied as a negative control. […] After the substrate was completely dissolved, 50 μL of isopropanol formazan solution was transferred from each well to a 48 well plate, which was measured on a plate reader using the absorbance setting at 490 nm.

[2] = test system: human skin model, primary human adult diabetic keratinocytes; assay: Irritation test (MTT viability) on skin model with adult diabetic donor keratinocytes; type: cell-based; details: 2 mg/mL SDS in PBS, 50 μL on top of 14-day diabetic sample, 18 hours at 37° C., MTT 3 hours, absorbance 490 nm
Description: as §1, §2

CCCCCCCCCCCCOS(=O)(=O)[O-].[Na+] [SDS, Sodium dodecyl sulfate]
absorbance value (MTT viability) relative to negative control [1]: greater than 50 % of the negative control | absorbance value (MTT viability) relative to negative control [2]: greater than 50 % of the negative control
